Reference: patent US4704361A, “Pharmaceutical compositions containing the cytidine monophospate of 5-acetamido-3,5-dideoxy-D-glycero-D-galactononulosaminic acid and a method for preparing said compound” (Compagnia di Ricerca Chimica S.p.A., priority 1983, dated 1987)
Like-named read-outs stand apart in the source and are kept apart here.

Legend:
Striatal gangliosides = test: Levels of striatal gangliosides of the rat following injuries by kainic acid; assay type: in vivo; settings: for Striatal gangliosides (NANA content): relative to control = 100%
Method: Male rats, Charles River CD, body weight of 180-200 g, have been divided into 4 groups, each group having 20 animals. The first group has been classified as the control group, the second group has been treated with physiological solution, the third group has been treated with kainic acid and the fourth group has been treated with CMP-NANA (20 mg/kg/day, i.p.) and kainic acid.
The treatment with CMP-NANA has been started one week before the treatment with kainic acid and has been continued until the animals have been sacrified.
The animals have been anesthetized with pentobarbital (60 mg/kg i.p.) and then treated with kainic acid (2 μg in 1 μl of the physiological solution), that has been injected into striatum.
The control rats have been treated with an equal volume (1 μl) of the physiological solution.
After 7 days the rats have been sacrified and the striatum has been removed. Each single determination has been performed with the pool of 5 samples. The gangliosides have been extracted and determined (as NANA content) as described previously.

LD50 in albino rats = settings: rat, in vivo, albino rats of 20±1 g
rats = test: Open field experiment, explorative activity of rat puppies on the 21st day of life; assay type: in vivo
Method: (§1) The study has been performed with 16 couples of the rats Charles River in their reproductive age, selected by uniform weight. On the third day of gestation they have been arbitrarily divided into 4 groups. […] Dietetic treatment have been continued during the entire periods of gestation and nursing.
(§2) Between the 14th and the 21st day of the life, the puppies of the 2nd and the 4th group have been treated with 20 mg/kg of CMP-NANA (Sigma Chemical Co.) i.p., the 1st and the 3rd group have been treated with the equal volume of physiological solution.
(§3) On the 21st day two male puppies from each group have been fixed on the holed table and for 20 minutes placed under the open field experiment. The periods related to the explorative activity have been observed and quantified. At the end of the experiment, the animals have been sacrified by decapitation, and their brains have been removed and examined for the content of the gangliosides (extractions performed by the method of G. Tettamanti et al., Biochim. Biophys. Acta 296, 160-170 (1973) as well as of the glycoproteins (extractions by the method of B. Berra et al., in Membranes in Tumor Growth, Galeotti et al., Eds., Elsevier, pp. 81-87, 1982; F. Omodeo Sale et al., Cell Mol. Biol. 27, 455-458, 1981).

Cerebral gangliosides = Cerebral gangliosides content (NANA) in rats on the 21st day of life; assay type: in vivo, rat
Description: The study has been performed with 16 couples of the rats Charles River in their reproductive age, selected by uniform weight. On the third day of gestation they have been arbitrarily divided into 4 groups. The two first groups have been fed with a semisynthetic diet that contained 10% of casein. Dietetic treatment have been continued during the entire periods of gestation and nursing.
as §2, §3
(§4) In both cases the content of NANA has been determined.

Cerebral glycoproteins = Cerebral glycoproteins content (NANA) in rats on the 21st day of life; assay type: in vivo, rat
Method: as §1, §2, §3, §4

Neuro-2a cells = test: CMP-NANA-induced neurite formation (sprouting) in cultured cells; assay type: cell-based
Method: Neuro-2a cells (American Type Culture Collection, Rockville, USA) were seeded at standard conditions (10^4 -10^6 cells/100 mm dish). Incubation time for quantification of sprouting was 24 hours. Thereafter fixation of the cells was performed by means of 3% glutaraldehyde containing buffered saline. Quantitative determination of nerve cell growth was performed with Zeiss D-7082 Micreo-Videomat.
Neurite sprouting was used as the parameter for nerve cell differentiation. The samples fixed in formaline were stained for better contrast.

[1] = test system: Neuro-2a neurine neuroblastoma; test: In vitro neuronal maturation, index of maturation of neuroblastoma cells; assay type: cell-based; settings: for Index of maturation (I.M.): standard media 10 ± 2, I.M. = L.P. × N.P.
Method: Neuro-2a neurine neuroblastoma (American Type Culture Collection-CCL 131) was grown in the medium consisting of fecal calf serum (Irvine Scientific, Irvine, Ca.), to which non-essential amino acids, antibiotic (5-20 mg %), and bicarbonate (50-100 mg %), were added. The cells were grown routinely on corning plastic tissue-culture flasks.
Cells for assay were plated on corning plastic Petri dishes, in the medium with or without CMP-NANA. In order to examine the role of CMP-NANA on in vitro neuron maturation, it was incorporated into the culture media at the time of plating or 24 or 48 hours postplating. The mean number and length of cell processes were repeatedly determined for a minimum of 100 cells per treatment group, to provide a semiquantitative index of neuron maturation (Table 5).
Index of maturation (I.M.) in Table 5 is expressed as: I.M.=L.P.×N.P., where:
L.P. 10:=the length of process to nearest 10μ
N.P.=Total number of processes
The effects of the various concentrations of CMP-NANA were evaluated with high resolution Nomarski optics.

Storage stability = assay type: physicochemical; settings: powder, -10° C.
Method: A 20 ml aliquot (containing about 8000 units of the enzyme) of the enzyme, CTP (4-5 mmol), N-acetylneuraminic acid (1 mmol) were added in portions, during 2 hours, to the solution (200 ml) of Tris-buffer, Mg^+2, and β-thio-propionic acid. The last three components were present in the concentrations 0.4, 0.04, and 0.002M, respectively. The mixture was incubated at 36°±0.2° C. for 6 hours, then diluted 8 times with water and rised slowly through a column of Dowex 1×4, bicarbonate form, 50-100 mesh (0.6 l resin/mmol of I). First washing was performed with 1 mM ammonium hydroxide, then with 3-4 vol. of a linear gradient from 0.02-2.0M triethylammonium hydrogencarbonate, pH 7.8.

Acid hydrolysis at pH 1 = assay type: physicochemical; settings: pH 1, 10 min, room temperature
Method: [α]D =-11.8° (c=0.2, water).

[2] = Adsorption and distribution of labeled CMP-NANA in the rat; assay type: in vivo; settings: 20 mg/kg i.m.; for Radioactivity level: Blood; for tissue uptake at 0.5 h / tissue uptake at 1 h / tissue uptake at 2 h / tissue uptake at 4 h: im, read-out: Radioactivity level
Method: CMP-NANA [9-^3 H] has been purchased from NEN (New England Nuclear, 6072 Dreieich, West Germany).
The rats fasting for about 18 hours, have been treated with CMP-NANA, dissolved in the phosphate buffer, at the dose of 20 mg/kg i.m. (specific activity=1000 mCi/mg). After 30 min., 1 hour, 2 hours and 4 hours periods the animals have been sacrified in the groups of 4, then liver, kidney and brain have been taken away from the animals and accurately weighted.
100 μg samples of the previous organs, and an analogous sample of the blood have been dissolved in Soluene 350 (Packard) and have been counted on the scintillation instrument in the liquid phase, on addition of the scintillating liquid.
The measurements have been quantized using a canal to canal-ratio technique. Table 3 illustrates the averaged results of all measurements.

[3] = normal and hypoproteinic diet, 20 mg/kg i.p.

C=C(C)[C@H]1CN[C@H](C(=O)O)[C@H]1CC(=O)O [kainic acid, reference compound]
Striatal gangliosides (NANA content) (Striatal gangliosides; Group 3: kainic acid alone, 2 μg into striatum): 66%

CC(=O)N[C@H]1[C@H]([C@H](O)[C@H](O)CO)O[C@](OP(=O)(O)OC[C@H]2O[C@@H](n3ccc(N)nc3=O)[C@H](O)[C@@H]2O)(C(=O)O)C[C@@H]1O [CMP-NANA, cytidine monophosphate of 5-acetamido-3,5-dideoxy-D-glycero-D-galactononulosaminic acid]
LD50 (LD50 in albino rats; ip, intraperitoneal): 900 mg/kg
LD50 (LD50 in albino rats; po, per os): 2400 mg/kg
Explorative activity (rats; Group 2: 20% casein + CMP-NANA 20 mg/kg i.p., relative to 2nd group = 100% (reference), p < 0.01-0.001 vs nontreatment (Group 1: 47)): 100%
Explorative activity (rats; Group 4: 10% casein + CMP-NANA 20 mg/kg i.p., relative to 2nd group = 100%, p < 0.01-0.001 vs nontreatment (Group 3: 12)): 52%
explorative activity (in words) (rats; [3]): inhanced in statistically significant manner
Cerebral gangliosides (Cerebral gangliosides; Group 2: 20% casein + CMP-NANA 20 mg/kg i.p., relative to 2nd group = 100% (reference), p < 0.01-0.001 vs nontreatment (Group 1: 75)): 100%
Cerebral gangliosides (Cerebral gangliosides; Group 4: 10% casein + CMP-NANA 20 mg/kg i.p., relative to 2nd group = 100%, p < 0.01-0.001 vs nontreatment (Group 3: 41)): 68%
NANA content in the cerebral gangliosides (in words) (Cerebral gangliosides; [3]): inhanced in statistically significant manner
Cerebral glycoproteins (Cerebral glycoproteins; Group 2: 20% casein + CMP-NANA 20 mg/kg i.p., relative to 2nd group = 100% (reference), p < 0.01-0.001 vs nontreatment (Group 1: 79)): 100%
Cerebral glycoproteins (Cerebral glycoproteins; Group 4: 10% casein + CMP-NANA 20 mg/kg i.p., relative to 2nd group = 100%, p < 0.01-0.001 vs nontreatment (Group 3: 69)): 75%
NANA content in the cerebral glycoproteins (in words) (Cerebral glycoproteins; [3]): inhanced in statistically significant manner
level of gangliosides in the striatum (in words) (Striatal gangliosides; CMP-NANA 20 mg/kg/day i.p. with kainic acid): hindered the diminuation of the level of gangliosides in the striatum
Striatal gangliosides (NANA content) (Striatal gangliosides; Group 4: kainic acid (2 μg into striatum) and CMP-NANA 20 mg/kg/day i.p.): 88%
sprouting of the nerves (in words) (Neuro-2a cells; 50 μg/ml): nearly doubled
dose-response relationship for number of neurites (in words) (Neuro-2a cells; 5-50 μg/ml, 24 hours): close dose-response relationship
increase of sprouting above the original steady-state value (Neuro-2a cells; 30 μ/ml (so in the source)): ~50%
activity at 5 µg/mL (Neuro-2a cells; Mus musculus, N2a, 5 μg/ml, 24 hours, 0 μg/ml = 100 ± 15, read-out: Extent of sprouting): 110 ± 15%
activity at 10 µg/mL (Neuro-2a cells; Mus musculus, N2a, 10 μg/ml, 24 hours, 0 μg/ml = 100 ± 15, read-out: Extent of sprouting): 117 ± 20%
activity at 20 µg/mL (Neuro-2a cells; Mus musculus, N2a, 20 μg/ml, 24 hours, 0 μg/ml = 100 ± 15, read-out: Extent of sprouting): 132 ± 25%
activity at 30 µg/mL (Neuro-2a cells; Mus musculus, N2a, 30 μg/ml, 24 hours, 0 μg/ml = 100 ± 15, read-out: Extent of sprouting): 145 ± 30%
activity at 50 µg/mL (Neuro-2a cells; Mus musculus, N2a, 50 μg/ml, 24 hours, 0 μg/ml = 100 ± 15, read-out: Extent of sprouting): 178 ± 35%
change of I.M. versus standard media (in words) ([1]; 2 μg/ml): doubled
change of I.M. versus standard media (in words) ([1]; 20 μg/ml): ten time higher
Index of maturation (I.M.) ([1]; SM + 1 μg/ml): 20 ± 5
Index of maturation (I.M.) ([1]; SM + 5 μg/ml): 45 ± 5
Index of maturation (I.M.) ([1]; SM + 10 μg/ml): 68 ± 10
Index of maturation (I.M.) ([1]; SM + 20 μg/ml): 92 ± 10
storage stability (Storage stability): at least one year
hydrolysis in acid (Acid hydrolysis at pH 1): affording CMP and N-acetylneuraminic acid (1.0:1.0 mol)

[3H]C(O)[C@@H](O)[C@@H](O)[C@@H]1O[C@](OP(=O)(O)OC[C@H]2O[C@@H](n3ccc(N)nc3=O)[C@H](O)[C@@H]2O)(C(=O)O)C[C@H](O)[C@H]1NC(C)=O (stereo partly drawn) [[^-3 H]-labeled CMP--NANA]
radioactivity decline in blood and organs (in words) [2]: rapidly diminished in the blood, and more slowly in the organs
radioactivity level of the brain relative to liver and kidney (in words) [2]: inferior to those of the liver and kidney
Radioactivity level ([2]; 30 min): 12.2 % of the administrated dose pe
Radioactivity level ([2]; 1 hr): 5.7 % of the administrated dose pe
Radioactivity level ([2]; 2 hrs): 3.2 % of the administrated dose pe
Radioactivity level ([2]; 4 hrs): 1.9 % of the administrated dose pe
tissue uptake at 0.5 h ([2]; Brain, 30 min): 6.2 %ID/g
tissue uptake at 1 h ([2]; Brain, 1 hr): 7.8 %ID/g
tissue uptake at 2 h ([2]; Brain, 2 hrs): 4.9 %ID/g
tissue uptake at 4 h ([2]; Brain, 4 hrs): 2.4 %ID/g
tissue uptake at 0.5 h ([2]; Kidney, 30 min): 2.6 %ID/g
tissue uptake at 1 h ([2]; Kidney, 1 hr): 5.2 %ID/g
tissue uptake at 2 h ([2]; Kidney, 2 hrs): 3.3 %ID/g
tissue uptake at 4 h ([2]; Kidney, 4 hrs): 1.6 %ID/g
tissue uptake at 0.5 h ([2]; Liver, 30 min): 3.9 %ID/g
tissue uptake at 1 h ([2]; Liver, 1 hr): 4.7 %ID/g
tissue uptake at 2 h ([2]; Liver, 2 hrs): 2.8 %ID/g
tissue uptake at 4 h ([2]; Liver, 4 hrs): 0.9 %ID/g
